In patent US11236055B2 (Venenum Biodesign, LLC, priority 2016, dated 2022):

How the values were obtained:
human TGR5 receptor = biological target: T1, human TGR5 receptor (Homo sapiens, UniProt Q8TDU6); test: Human TGR5 cAMP production assay; format: cell-based; conditions: human TGR5, luminescent cAMP assay; coded A-D; read-out: Human TGR5 Lum. cAMP Activity (EC50)
T1 construct: host or cells: CHO-K1 (hTGR5-CHO cells)
T1 sequence (Q8TDU6 1-330): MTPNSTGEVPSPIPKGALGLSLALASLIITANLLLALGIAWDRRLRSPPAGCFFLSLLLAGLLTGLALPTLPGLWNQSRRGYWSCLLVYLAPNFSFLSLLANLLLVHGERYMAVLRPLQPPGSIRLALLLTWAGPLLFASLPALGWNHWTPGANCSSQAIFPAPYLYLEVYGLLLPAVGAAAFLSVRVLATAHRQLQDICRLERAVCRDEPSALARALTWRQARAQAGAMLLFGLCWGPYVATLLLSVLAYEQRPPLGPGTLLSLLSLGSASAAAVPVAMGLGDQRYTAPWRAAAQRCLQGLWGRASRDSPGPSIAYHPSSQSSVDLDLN
Method: Human TGR5 cAMP Production Assay
We evaluated the Compounds of the present invention for their ability to induce cAMP production using CHO-K1 cells overexpressing the human TGR5 receptor. CHO-K1 cells stably expressing human TGR5 receptor (accession number NM_001077194.1 (hTGR5) (i.e., hTGR5-CHO cells) were purchased from DiscoveRx Corporation (Fremont, Calif.). hTGR5-CHO cells were grown in Ham's F-12 media supplemented with 10% Fetal Bovine Serum, 1% Penicillin-Streptomycin, 2 mM L-Alanine L-Glutamine (Glutamax), and 800 μg/mL Geneticin selection. The cAMP production assay was performed using DiscoveRx's cAMP XS+ kit (Catalog No. 90-0075XL) following the manufacturer's recommended protocol. Briefly, hTGR5-CHO cells were harvested using non-enzymatic cell dissociation buffer (Sigma-Aldrich, St. Louis, Mo.) and 1×10^6 cells were combined in Phosphate-Buffered Saline (PBS) to a final volume of 496 μL to which 4 μL of 125 mM IBMX (Sigma-Aldrich, St. Louis, Mo.) was added. 500 μL of cAMP antibody solution was added to the harvested cells and incubated at room temperature for 20 min.
Test compounds were serially diluted (half-log dilutions) in DMSO and then further diluted 1:50 in PBS, 10 mM HEPES buffer. 2 μL of serially diluted compound was added to a 384-well low volume plate (Greiner; cat #784075) and centrifuged briefly. 2 μL of the cell/cAMP antibody mixture was then added to each compound-containing well and allowed to incubate at room temperature for one hour. Following incubation, the XS+ kits' ED/Lysis/CL Substrate Working Solution was prepared following the manufacturer's recommended protocol and 4 μL was added to each well of the plate. The plate was then incubated for one hour at room temperature. Following incubation, 4 μL of Enzyme Acceptor reagent was added to the plate and allowed to incubate overnight at room temperature. Luminescent signal was then detected using the Viewlux instrument (Perkin-Elmer, Waltham, Mass.).
(§1) In Table 33, EC50 values for both human and mouse cells were determined according to the TGR5 cAMP assays described above.

mouse TGR5 receptor = biological target: T2, mouse TGR5 receptor (Mus musculus, UniProt Q80SS6); test: Mouse TGR5 cAMP production assay (HTRF, Cisbio cAMP HiRange); format: cell-based; conditions: HEK293-EBNA cells overexpressing mouse TGR5, HTRF cAMP HiRange; coded A-D
T2 construct: expressed in transfected cells; host or cells: HEK293-EBNA (293 c18, ATCC CRL10852), Hygromycin B selection
T2 sequence (Q80SS6 1-329): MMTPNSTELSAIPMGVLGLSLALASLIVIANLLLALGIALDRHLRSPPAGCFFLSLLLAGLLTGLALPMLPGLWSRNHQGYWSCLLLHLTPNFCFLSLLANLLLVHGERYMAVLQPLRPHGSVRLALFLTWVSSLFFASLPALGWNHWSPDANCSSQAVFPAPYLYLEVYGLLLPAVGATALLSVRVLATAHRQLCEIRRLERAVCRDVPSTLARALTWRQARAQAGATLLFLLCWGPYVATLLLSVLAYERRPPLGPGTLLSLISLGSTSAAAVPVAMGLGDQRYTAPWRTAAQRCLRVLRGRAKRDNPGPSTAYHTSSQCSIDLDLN
Text: Mouse TGR5 cAMP Production Assay
We evaluated compounds of the present invention for their ability to induce cAMP production in HEK-EBNA cells overexpressing the mouse TGR5 receptor. Human embryonic kidney cells (HEK293-EBNA) stably expressing mouse TGR5 receptor were established using the following procedure. Specifically, a commercially-obtained gene encoding mouse TGR5 (accession number BC116914) from Thermo Scientific (Waltham, Mass.) was cloned into an episomal expression vector. The resulting expression plasmid was then transfected into 293 c18 (ATCC® CRL10852™) cells, which express the Epstein-Barr virus nuclear antigen EBNA1 and can support the replication of episomal vectors. Selection for the plasmid was maintained with Hygromycin B. Cells were cultured and maintained in DMEM (Sigma; cat #6429) supplemented with 10% Fetal Bovine Serum, 1% penicillin/streptomycin, 2 mM L-alanine L-glutamine (GlutaMax), and 250 μg/mL Hygromycin.
2. HTRF cAMP Production Assay
In this second cAMP production assay, the cAMP production was measured in 384-well low volume plates (Greiner; cat #784075) using the Cisbio™ cAMP HiRange HTRF Assay Kit (Cisbio) according to the manufacturer's protocol.
Briefly, compounds were initially diluted in 100% DMSO (12-point serial dilution by half logs) in a 96-well plate and then were further diluted 1:50 in PBS containing 10 mM HEPES. 5 μL were transferred to the 384-well assay plate in duplicate. HEK293-EBNA cells stably overexpressing mouse TGR5 were harvested using non-enzymatic cell dissociation buffer (Sigma), spun down, then resuspended in serum-free DMEM with 500 μM IBMX at a density of 500,000 cells/mL. 5 μL of cell suspension was transferred to each well of the 384-well assay plate already containing compound. The plate was covered and incubated at room temperature for 1 hour. The d2-cAMP and anti-cAMP Ab-cryptate stock solutions were prepared as per kit instructions. Then 5 μL of each conjugate (d2 and cryptate) were added to each well of the assay plate. The plate was covered and incubated at room temperature for 1 hour. The plate was read on an Envision™ plate reader (Perkin Elmer).
as §1

SMILES | EC50 (human TGR5 receptor) [nM] | EC50 (mouse TGR5 receptor) [nM]
Cc1cnccc1-c1cccc(C2CN(C(=O)CCC(=O)O)CCN2S(=O)(=O)c2cccc(Cl)c2Cl)c1 (stereo not drawn) [Compound 46AK, 4-(4-((2,3-dichlorophenyl)sulfonyl)-3-(3-(3-methylpyridin-4-yl)phenyl)piperazin-1-yl)-4-oxobutanoic acid] | 100 to 999 | < 100
CCc1cnccc1-c1cccc([C@@H](C)NS(=O)(=O)c2ccccc2C(F)(F)F)c1 [Compound 5AS, (R)-N-(1-(3-(3-ethylpyridin-4-yl)phenyl)ethyl)-2-(trifluoromethyl)benzenesulfonamide] | < 100 | 100 to 999
Cc1nccc(-c2cccc([C@H](C)NS(=O)(=O)c3cccc(Cl)c3C)c2)c1C [Compound 7AB, (S)-3-chloro-N-(1-(3-(2,3-dimethylpyridin-4-yl)phenyl)ethyl)-2-methylbenzenesulfonamide] | 100 to 999 | 1000 to 30000
Cc1cnccc1-c1cccc([C@H](C)N(CCOCC(=O)O)S(=O)(=O)c2cccc(Cl)c2C)c1 [Compound 16AM, (S)-2-(2-(3-chloro-2-methyl-N-(1-(3-(3-methylpyridin-4-yl)phenyl)ethyl)phenylsulfonamido)ethoxy)acetic acid] | 100 to 999 | 100 to 999
Cc1cnccc1-c1cccc(C(CCCCC#N)NS(=O)(=O)c2cccc(Cl)c2C)c1 (stereo not drawn) [Compound 35, 3-chloro-N-(5-cyano-1-(3-(3-methylpyridin-4-yl)phenyl)pentyl)-2-methylbenzenesulfonamide] | 100 to 999 | 100 to 999
Cc1cnccc1-c1cccc([C@H](C)NS(=O)(=O)c2cccc(Cl)c2C)c1 [Compound 7] | < 100 | < 100
Cc1cnccc1-c1cccc(C(C)(C)N(CCCC(=O)NCCNc2ncc(C(=O)O)cn2)S(=O)(=O)c2cccc(Cl)c2C)c1 [Compound 27AA, 2-((2-(4-(3-chloro-2-methyl-N-(2-(3-(3-methylpyridin-4-yl)Phenyl)propan-2-yl)phenylsulfonamido)butanamido)ethyl)amino)pyrimidine-5-carboxylic acid] | < 100 | < 100
Cc1cnccc1-c1cccc([C@H](C)N(CCCC(=O)N[C@@H](CO)C(=O)O)S(=O)(=O)c2cccc(Cl)c2C)c1 [Compound 21AI, (S)-2-(4-(3-chloro-2-methyl-N-((S)-1-(3-(3-methylpyridin-4-yl)phenyl)ethyl)phenylsulfonamido)butanamido)-3-hydroxypropanoic acid] | < 100 | 100 to 999
Cc1cnccc1-c1cccc(C(C)(C)N(CCCC(=O)NCCN)S(=O)(=O)c2cccc(Cl)c2C)c1 [Compound 21, N-(2-Aminoethyl)-4-(3-chloro-2-methyl-N-(2-(3-(3-methylpyridin-4-yl)phenyl)propan-2-yl)-phenylsulfonamido)butanamide] | < 100 | 100 to 999
CC(C)(NS(=O)(=O)c1cccc(C(F)(F)F)c1)c1cccc(-c2ccc3nccn3c2)c1 [Compound 5AF, N-(2-(3-(imidazo[1,2-a]pyridin-6-yl)phenyl)propan-2-yl)-3-(trifluoromethyl)benzenesulfonamide] | 100 to 999 | 1000 to 30000
Cc1cnccc1-c1cccc(C2CN(C(=O)CS(=O)(=O)O)CCN2S(=O)(=O)c2cccc(Cl)c2Cl)c1 (stereo not drawn) [Compound 49AC, 2-(4-((2,3-dichlorophenyl)sulfonyl)-3-(3-(3-methylpyridin-4-yl)phenyl)piperazin-1-yl)-2-oxoethanesulfonic acid] | < 100 | < 100
Cc1nccc(-c2cccc(C(C)(C)NS(=O)(=O)c3cccc(C(F)(F)F)c3)c2)c1C [Compound 5AC, N-(2-(3-(2,3-dimethylpyridin-4-yl)phenyl)propan-2-yl)-3-(trifluoromethyl)-benzenesulfonamide] | 1000 to 30000 | 1000 to 30000
Cc1cnccc1-c1cccc([C@H](C)N(CCCC(N)=O)S(=O)(=O)c2cccc(Cl)c2C)c1 [Compound 20AY, (S)-4-(3-Chloro-2-methyl-N-(1-(3-(3-methylpyridin-4-yl)phenyl)ethyl)phenylsulfonamido)butanamide] | < 100 | 100 to 999
Cc1cnccc1-c1cccc(C(CCCCNC(=O)NCCS(=O)(=O)O)NS(=O)(=O)c2ccccc2C(F)(F)F)c1 (stereo not drawn) [Compound 28AG, 2-(3-(5-(3-(3-methylpyridin-4-yl)phenyl)-5-(2-(trifluoromethyl)phenylsulfonamido)pentyl)ureido)ethanesulfonic acid] | 100 to 999 | 100 to 999
Cc1cnsc1-c1cccc([C@H](C)NS(=O)(=O)c2cccc(Cl)c2C)c1 [Compound 7AA, (S)-3-chloro-2-methyl-N-(1-(3-(4-methylisothiazol-5-yl)-phenyl)ethyl)benzenesulfonamide] | 1000 to 30000 | > 30000
Cc1c(Cl)cccc1S(=O)(=O)N(CCCC(=O)NCCS(=O)(=O)O)[C@@H](C)c1cccc(-c2ccncc2CO)c1 [Compound 20AP, (S)-2-(4-(3-chloro-N-(1-(3-(3-(hydroxymethyl)pyridin-4-yl)phenyl)ethyl)-2-methylphenylsulfonamido)butanamido)ethanesulfonic acid] | 100 to 999 | 100 to 999
CC(=O)N1CCN(S(=O)(=O)c2ccccc2C(F)(F)F)C(c2cccc(-c3ccncc3C)c2)C1 (stereo not drawn) [Compound 45, 1-(3-(3-(3-methylpyridin-4-yl)phenyl)-4-((2-(trifluoromethyl)phenyl)sulfonyl)piperazin-1-yl)ethanone] | 100 to 999 | < 100
Cc1cnccc1-c1cccc(C2CN(C(=O)OC(C)(C)C)CCN2S(=O)(=O)c2ccccc2C(F)(F)F)c1 (racemic) [Compound 42, (+/−) tert-butyl 3-(3-(3-methylpyridin-4-yl)phenyl)-4-((2-(trifluoromethyl)phenyl)sulfonyl)-piperazine-1-carboxylate] | 1000 to 30000 | 1000 to 30000
